Laboratory results taken from US9345667B2, “Particles having hydrophobic material therein” (Australian Nuclear Science and Technology Organisation, priority 2005, dated 2016).
Values after ≈ are worked out from the molar mass of the structure shown.

Key:
[1] = Release of SB-35 dye from silica microparticles (UV/Vis); format: physicochemical; conditions: in cyclohexane, compared with dodecane
Procedure: 1. The encapsulation efficiency and release rate of the hydrophobic dye were determined by UV/Vis spectroscopy (Cary 50). The encapsulation efficiency was estimated by two methods. The first one was an indirect measurement, which consisted of measuring the U/Vis absorbance of the cyclohexane/Span 80 solutions after the silica particles had been filtered out. The encapsulation efficiency of the dye was calculated by subtracting the dye measured in the outer oil phase from the original dye concentration introduced into the system. A standard calibration curve was generated by adding accurate amounts of dye into the outer oil phase, with identical composition and concentration as the one used for the preparation of the corresponding samples. The second “direct” method consisted of measuring the release of SB-35 from the silica particles in a solvent such as ethanol, cyclohexane or dodecane, until the absorbance was stable. A standard calibration curve was produced by using the identical composition and concentration as the sample release media. (The surfactant content was estimated by the TGA/DTA result). The absorbance was measured at different intervals of time while stirring the product to produce the dye release curve.
The faster release rate observed in the case of the cyclohexane may be explained by the higher lipophilicity of the cyclohexane. […]

[2] = cited from earlier work
[3] = UV/Vis of retinol during release from retinol-doped silica particles; format: physicochemical; conditions: release in anhydrous ethanol

CCCCNc1ccc(NCCCC)c2c1C(=O)c1ccccc1C2=O [SB-35, Solvent Blue 35]
release rate of SB-35 from silica microparticles [1]: faster than in dodecane

CN(C)C(=O)Nc1ccc(Cl)c(Cl)c1 [diuron, 3-(3,4-Dichlorophenyl)-1,1-dimethylurea]
solubility in methanol [2]: 43 mg/mL (≈ 184 mM)

CC1=C(/C=C/C(C)=C/C=C/C(C)=C/CO)C(C)(C)CCC1 [retinol]
retinol UV/Vis band during release [3]: disappeared
